Results: ChEMBL document CHEMBL1201862, “PubChem BioAssay data set” (2004)
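Method: 48-hour compound exposure of cells in 96-well plates, five concentrations, linear interpolation of endpoints. GI50 marks 50% less growth.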 Active and inactive are the calls of the source. Rule as the data show it: active = GI50 up to about 1.1 µM and inactive = higher.

Legend:
Assay in all cases: NCI-60 cell line screen, 48 h
[1] = system: A549
[2] = system: HOP-92
[3] = system: NCI/ADR-RES
[4] = system: UO-31
[5] = system: T47D
[6] = system: COLO 205
[7] = system: SF-539
[8] = system: OVCAR-8
[9] = system: MDA-MB-231
[10] = system: LOX IMVI
[11] = system: SNB-19
[12] = system: M14
[13] = system: KM12
[14] = system: HCC 2998
[15] = system: SK-OV-3
[16] = system: SK-MEL-28
[17] = system: SF-268
[18] = system: UACC-62
[19] = system: SK-MEL-2
[20] = system: NCI-H226

`C/C1=C/C(C)CC(C)OC(=O)C(C)NC(=O)C(Cc2ccc(O)c(I)c2)N(C)C(=O)CNC(=O)C(C)C1` (stereo not given) was tested, and the GI50 [1] was < 0.01 µM (active), the GI50 [2] was < 0.0112 µM (active) and the GI50 [3] was 0.0313 µM (active). For the same molecule, the GI50 [4] was < 0.0109 µM (active), the GI50 [5] was 0.229 µM (active) and the GI50 [6] was < 0.01 µM (active). For the same molecule, the GI50 [7] was < 0.01 µM (active), the GI50 [8] was 0.0306 µM (active) and the GI50 [9] was < 0.01 µM (active). The GI50 [10] was < 0.01 µM (active), the GI50 [11] was 2.42 µM (inactive) and the GI50 [12] was 0.0102 µM (active). For the same molecule, the GI50 [13] was < 0.01 µM (active), the GI50 [14] was < 0.01 µM (active) and the GI50 [15] was < 0.01 µM (active). The GI50 [16] was 0.105 µM (active) and the GI50 [17] was < 0.0186 µM (active).

With `Cc1ccc(C(=O)/C=C2\Nc3ccccc3N=C2NC23CC4CC(CC(C4)C2)C3)cc1` the GI50 [1] was > 10 µM (inactive), the GI50 [2] was > 10 µM (inactive) and the GI50 [3] was > 10 µM (inactive). For the same molecule, the GI50 [5] was > 10 µM (inactive), the GI50 [6] was > 10 µM (inactive) and the GI50 [7] was > 10 µM (inactive). For the same molecule, the GI50 [8] was > 10 µM (inactive), the GI50 [9] was > 10 µM (inactive) and the GI50 [10] was > 10 µM (inactive). For the same molecule, the GI50 [11] was > 10 µM (inactive), the GI50 [12] was > 10 µM (inactive) and the GI50 [13] was > 10 µM (inactive). For the same molecule, the GI50 [14] was > 10 µM (inactive), the GI50 [15] was > 10 µM (inactive) and the GI50 [16] was > 10 µM (inactive). For the same molecule, the GI50 [17] was > 10 µM (inactive) and the GI50 [18] was > 10 µM (inactive).

In the case of `CCOP(=O)(OCC)[C@H]1OC(C)(C)O[C@@H]1CO`, the GI50 [1] is reported as > 100 µM (inactive), the GI50 [2] is reported as > 100 µM (inactive) and the GI50 [3] is reported as > 100 µM (inactive). The GI50 [5] was > 100 µM (inactive), the GI50 [6] was > 100 µM (inactive) and the GI50 [7] was > 100 µM (inactive). The GI50 [8] was > 100 µM (inactive), the GI50 [9] was > 100 µM (inactive) and the GI50 [10] was > 100 µM (inactive). For the same molecule, the GI50 [11] was > 100 µM (inactive), the GI50 [19] was > 100 µM (inactive) and the GI50 [12] was > 100 µM (inactive). For the same molecule, the GI50 [13] was > 100 µM (inactive), the GI50 [14] was > 100 µM (inactive) and the GI50 [15] was > 100 µM (inactive). For the same molecule, the GI50 [16] was > 100 µM (inactive), the GI50 [17] was > 100 µM (inactive) and the GI50 [18] was > 100 µM (inactive).

For `O=C(Nn1c(-c2ccccc2)nc2ccccc2c1=O)c1ccccn1`, the GI50 [1] was > 100 µM (inactive), the GI50 [2] was 78 µM (inactive) and the GI50 [3] was > 100 µM (inactive). For the same molecule, the GI50 [4] was > 100 µM (inactive), the GI50 [5] was > 100 µM (inactive) and the GI50 [6] was > 100 µM (inactive). For the same molecule, the GI50 [7] was 43.7 µM (inactive), the GI50 [8] was 64.4 µM (inactive) and the GI50 [9] was > 100 µM (inactive). For the same molecule, the GI50 [10] was > 100 µM (inactive), the GI50 [11] was > 100 µM (inactive) and the GI50 [12] was > 100 µM (inactive). For the same molecule, the GI50 [13] was 83.6 µM (inactive), the GI50 [14] was > 100 µM (inactive) and the GI50 [15] was > 100 µM (inactive). The GI50 [16] was > 100 µM (inactive), the GI50 [17] was > 100 µM (inactive) and the GI50 [18] was 42.3 µM (inactive).

In the case of `C/C=C1/CN2CCC3(O)c4ccccc4N4C=C(C(=O)OC)C1CC2C43O` (stereo not given), the GI50 [1] is reported as > 100 µM (inactive), the GI50 [2] is reported as > 100 µM (inactive) and the GI50 [3] is reported as > 100 µM (inactive). The GI50 [4] was > 100 µM (inactive), the GI50 [5] was > 100 µM (inactive) and the GI50 [6] was > 100 µM (inactive). The GI50 [7] was > 100 µM (inactive), the GI50 [8] was > 100 µM (inactive) and the GI50 [9] was > 10 µM (inactive). For the same molecule, the GI50 [10] was > 100 µM (inactive), the GI50 [11] was > 100 µM (inactive) and the GI50 [12] was > 100 µM (inactive). For the same molecule, the GI50 [13] was > 100 µM (inactive), the GI50 [14] was > 100 µM (inactive) and the GI50 [15] was > 100 µM (inactive). For the same molecule, the GI50 [16] was > 100 µM (inactive), the GI50 [17] was > 100 µM (inactive) and the GI50 [18] was > 100 µM (inactive).

For `COc1cc(C=O)ccc1O` [VANILLIN], the GI50 [1] was > 100 µM (inactive), the GI50 [2] was > 100 µM (inactive) and the GI50 [3] was > 100 µM (inactive). The GI50 [4] was > 100 µM (inactive), the GI50 [5] was > 100 µM (inactive) and the GI50 [6] was > 100 µM (inactive). For the same molecule, the GI50 [7] was > 100 µM (inactive), the GI50 [8] was > 100 µM (inactive) and the GI50 [9] was > 100 µM (inactive). For the same molecule, the GI50 [10] was > 100 µM (inactive), the GI50 [11] was > 100 µM (inactive) and the GI50 [12] was > 100 µM (inactive). The GI50 [13] was > 100 µM (inactive), the GI50 [20] was > 100 µM (inactive) and the GI50 [14] was > 100 µM (inactive). The GI50 [16] was > 100 µM (inactive) and the GI50 [17] was > 100 µM (inactive).
